Assay [1] has as its system human precision cut lung slices from a normal donor treated with fibrotic cocktail. Nature of the assay: Human precision cut lung slice (PCLS) culture, normal donor treated with fibrotic cocktail. The settings on record: normal donor PCLS treated 8 days with pro-fibrotic cocktail (FC); FIG. 2a, FIG. 3. In kind it is cell-based. How it is done: Human PCLS were generated from lung explants of patients with pulmonary fibrosis (donor ID #221028) or normal donor (donor ID #220730). Cryopreserved hPCLSs were obtained from Institute for In Vitro Sciences (IIVS) and maintained with air-liquid interface culture approach under 37° C., 5% CO2 and 95% humidity. hPCLS were cultured in DMEM-F12 (Invitrogen, Cat No. 11330032) containing 0.2% primocin (Invivogen, Cat No. ant-pm-1) and 1% insulin-transferrin-selenium (ITS-G; Invitrogen, Cat No. 41400045), after initial acclimation in acclimation media, including culture media supplemented with 1% antibiotic antimycotic solution (Invitrogen, Cat No. 15240062), 2 mM Hydrocortisone (Millipore Sigma,) and 5 mg/ml 2-phospho-L-abscorbic acid trisodium salt (Millipore Sigma, Cat No. 49752-10G) for 3 days. Slices of tissue were flatly grown in the tissue culture inserts with 0.4 μm pores of a 12-well plate (StemCell Technologies, Cat No. 1001027), supplemented with 100 μl culture media in the apical side containing PCLSs, and 900 μL culture media in the basal compartment. Media were changed every 48 hours. hPCLS were treated and randomly assigned in replicates of 6-8 per condition 7 days after recovery from cryopreservation. […] IPF donor PCLS were collected at day 8 for subsequent RNA isolation and gene expression quantification. […]

In assay [2] the target is T1, Recombinant human 17β-HSD13 (Homo sapiens, UniProt Q7Z5P4).
T1 construct: host or cells: Sf9 insect cells
T1 sequence (Q7Z5P4 20-300): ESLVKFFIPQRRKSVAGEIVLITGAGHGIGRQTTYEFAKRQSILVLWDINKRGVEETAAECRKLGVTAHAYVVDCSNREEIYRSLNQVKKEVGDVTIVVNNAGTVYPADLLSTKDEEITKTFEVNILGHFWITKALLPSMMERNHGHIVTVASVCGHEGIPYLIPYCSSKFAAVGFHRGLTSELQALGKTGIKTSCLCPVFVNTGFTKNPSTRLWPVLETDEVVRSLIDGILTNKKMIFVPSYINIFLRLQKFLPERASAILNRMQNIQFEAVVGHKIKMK
Nature of the assay: 17β-HSD13 rapid-fire mass spectrometry assay (RF/MS assay). Format: biochemical. The settings on record: inhibition of 17β-HSD13, RF/MS assay; HSD17B13 80 nM, LTB4 10 μM, NAD+ 0.5 mM, RT 3 h. Summed up: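 Purified recombinant human 17β-HSD13 (sf9-expressed, 80 nM) incubated with compound (0–100 μM), 10 μM LTB4 and 0.5 mM NAD+ in 20 mM Tris pH 7.5, 0.005% BSA, 0.01% Tween-20, 3 h at RT. 12-oxo-LTB4 formation quantified by RapidFire MS/MS; percent conversion normalized to controls, IC50 from variable-slope fit, duplicates.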

Turning to `COc1ccc(-c2nc3sc4c(O)c(Cl)ccc4c3c(=O)n2Cc2cnco2)c(C2CC2)c1` [Example 26, 7-chloro-2-(2-cyclopropyl-4-methoxyphenyl)-8-hydroxy-3-(oxazol-5-ylmethyl)benzo[4,5]thieno[2,3-d]pyrimidin-4(3H)-one], the “collagen (COL1A1) mRNA expression” value in assay [1] is “decreased”. In addition, the 50% inhibitory concentration (IC50) (as a rule, the point on the concentration scale where inhibition reaches its midpoint) in assay [2] is less than 100 nM.

Take `CS(=O)(=O)c1ccc(-c2nc3sc4c(O)c(Cl)ccc4c3c(=O)n2Cc2cnc(C(F)(F)F)nc2)c(C2CC2)c1` [Example 64, 7-chloro-2-(2-cyclopropyl-4-(methylsulfonyl)phenyl)-8-hydroxy-3-((2-(trifluoromethyl)pyrimidin-5-yl)methyl)benzo[4,5]thieno[2,3-d]pyrimidin-4(3H)-one]: the “collagen (COL1A1) mRNA expression” value in assay [1] is on record as “decreased”. Moreover, the half-maximal inhibitory concentration (IC50) in assay [2] was less than 100 nM.

The record behind these values is patent US20250154163A1, “Pyrimidinone-Containing 17-Beta-Hydroxysteroid Dehydrogenase Type 13 Inhibitors” (ENANTA PHARMACEUTICALS, INC., priority 2023, published 2025).
